# System: TKI-resistant patients with chronic phase (CP) or accelerated phase (AP) CML
# Test: Phase I study, safety / treatment related adverse events (Example 1)
# Description: The eligible patients received treatments until disease progression or intolerable toxicities. The primary efficacy endpoint in the CML AP and CP patients, was complete hematological response (CHR) and major cytogenetic response (MCyR) respectively, MCyR includes partial cytogenetic response (PCyR) and complete cytogenetic response (CCyR). Blood samples were collected at various time points on Day 1-2 and Day 27-28 during cycle 1 for PK analyses.
# • 3 to 6 subjects in each dose group (traditional 3+3 dose increasing method) • Up to 15 subjects in the MTD dose group (safety and PK characteristics) • Dose extension studies: • Up to 60 subjects (CP/CML-AP) • Extended dose selection is based on initial safety and efficacy Study Endpoints Primary Endpoint
# [1] = Example 1, Table 1, 70 patients
structure (smiles),measurement,setting,value
"Cc1ccc(C(=O)Nc2ccc(CN3CCN(C)CC3)c(C(F)(F)F)c2)cc1C#Cc1cnc2[nH]ncc2c1 [compound of formula (I-A), 3-(2-(1H-pyrazolo[3,4-b]pyridin-5-yl)ethynyl)-4-methyl-N-(4-((4-methylpiperazin-1-yl)methyl)-3-(trifluoromethyl)phenyl)-benzamide]","TRAE ALT increased, Any grade",[1],15 (21%) n (%)
same,"TRAE ALT increased, Grade 3-4",[1],0 n (%)
same,"TRAE AST increased, Any grade",[1],17 (24%) n (%)
same,"TRAE AST increased, Grade 3-4",[1],0 n (%)
same,"TRAE Anaemia, Any grade",[1],6 (8.6%) n (%)
same,"TRAE Anaemia, Grade 3-4",[1],5 (7.1%) n (%)
same,"TRAE CPK increased, Any grade",[1],18 (26%) n (%)
same,"TRAE CPK increased, Grade 3-4",[1],1 (1.4%) n (%)
same,"TRAE Creatinine increased, Any grade",[1],4 (5.7%) n (%)
same,"TRAE Creatinine increased, Grade 3-4",[1],0 n (%)
same,"TRAE GGT increased, Any grade",[1],10 (14%) n (%)
same,"TRAE GGT increased, Grade 3-4",[1],0 n (%)
same,"TRAE Hyperbilirubinemia, Any grade",[1],20 (29%) n (%)
same,"TRAE Hyperbilirubinemia, Grade 3-4",[1],0 n (%)
same,"TRAE Hyperglycaemia, Any grade",[1],5 (7.1%) n (%)
same,"TRAE Hyperglycaemia, Grade 3-4",[1],0 n (%)
same,"TRAE Hypertriglyceridaemia, Any grade",[1],36 (51%) n (%)
same,"TRAE Hypertriglyceridaemia, Grade 3-4",[1],2 (2.9%) n (%)
same,"TRAE Hypocalcaemia, Any grade",[1],25 (36%) n (%)
same,"TRAE Hypocalcaemia, Grade 3-4",[1],0 n (%)
same,"TRAE Hypokalaemia, Any grade",[1],12 (17%) n (%)
same,"TRAE Hypokalaemia, Grade 3-4",[1],0 n (%)
same,"TRAE Hyponatraemia, Any grade",[1],5 (7.1%) n (%)
same,"TRAE Hyponatraemia, Grade 3-4",[1],0 n (%)
same,"TRAE Leucocytopenia, Any grade",[1],12 (17%) n (%)
same,"TRAE Leucocytopenia, Grade 3-4",[1],12 (17%) n (%)
same,"TRAE Myalgia, Any grade",[1],11 (16%) n (%)
same,"TRAE Myalgia, Grade 3-4",[1],0 n (%)
same,"TRAE Pyrexia, Any grade",[1],13 (19%) n (%)
same,"TRAE Pyrexia, Grade 3-4",[1],4 (5.7%) n (%)
same,"TRAE Rash, Any grade",[1],9 (13%) n (%)
same,"TRAE Rash, Grade 3-4",[1],0 n (%)
same,"TRAE Skin hyperpigmentation, Any grade",[1],17 (24%) n (%)
same,"TRAE Skin hyperpigmentation, Grade 3-4",[1],0 n (%)
same,"TRAE Skin mass, Any grade",[1],6 (8.6%) n (%)
same,"TRAE Skin mass, Grade 3-4",[1],0 n (%)
same,"TRAE Thrombocytopenia, Any grade",[1],35 (50%) n (%)
same,"TRAE Thrombocytopenia, Grade 3-4",[1],35 (50%) n (%)
same,"TRAEs Hematological, Any grade",[1],36 (51%) n (%)
same,"TRAEs Hematological, Grade 3-4",[1],36 (51%) n (%)
same,"TRAEs Non-hematological, Any grade",[1],67 (96%) n (%)
same,"TRAEs Non-hematological, Grade 3-4",[1],11 (16%) n (%)
same,"TRAEs Overall, Any grade",[1],67 (96%) n (%)
same,"TRAEs Overall, Grade 3-4",[1],44 (63%) n (%)
same,ALT increased leading to dose interruption/reduction,"Example 1, 20 mg (n = 4)",0 n (%)
same,AST increased leading to dose interruption/reduction,"Example 1, 20 mg (n = 4)",0 n (%)
same,Amylase increased leading to dose interruption/reduction,"Example 1, 20 mg (n = 4)",1(25%) n (%)
same,Anemia leading to dose interruption/reduction,"Example 1, 20 mg (n = 4)",0 n (%)
same,Atrial fibrillation leading to dose interruption/reduction,"Example 1, 20 mg (n = 4)",0 n (%)
same,Cardiomyopathy leading to dose interruption/reduction,"Example 1, 20 mg (n = 4)",0 n (%)
same,GGT increased leading to dose interruption/reduction,"Example 1, 20 mg (n = 4)",0 n (%)
same,Hyperkalemia leading to dose interruption/reduction,"Example 1, 20 mg (n = 4)",0 n (%)
same,Hypertriglyceridemia leading to dose interruption/reduction,"Example 1, 20 mg (n = 4)",0 n (%)
same,Hypocalcemia leading to dose interruption/reduction,"Example 1, 20 mg (n = 4)",0 n (%)
same,Lacunar infarction leading to dose interruption/reduction,"Example 1, 20 mg (n = 4)",0 n (%)
same,Lipase increased leading to dose interruption/reduction,"Example 1, 20 mg (n = 4)",0 n (%)
same,Thrombocytopenia leading to dose interruption/reduction,"Example 1, 20 mg (n = 4)",1(25%) n (%)
same,ALT increased leading to dose interruption/reduction,"Example 1, 30 mg (n = 37)",0 n (%)
same,AST increased leading to dose interruption/reduction,"Example 1, 30 mg (n = 37)",0 n (%)
same,Amylase increased leading to dose interruption/reduction,"Example 1, 30 mg (n = 37)",0 n (%)
same,Anemia leading to dose interruption/reduction,"Example 1, 30 mg (n = 37)",1 n
same,"Anemia leading to dose interruption/reduction, percent of cohort","Example 1, 30 mg (n = 37)",(2.7%)
same,Atrial fibrillation leading to dose interruption/reduction,"Example 1, 30 mg (n = 37)",1 n
same,"Atrial fibrillation leading to dose interruption/reduction, percent of cohort","Example 1, 30 mg (n = 37)",(2.7%)
same,Cardiomyopathy leading to dose interruption/reduction,"Example 1, 30 mg (n = 37)",0 n (%)
same,GGT increased leading to dose interruption/reduction,"Example 1, 30 mg (n = 37)",0 n (%)
same,Hyperkalemia leading to dose interruption/reduction,"Example 1, 30 mg (n = 37)",1 n
same,"Hyperkalemia leading to dose interruption/reduction, percent of cohort","Example 1, 30 mg (n = 37)",(2.7%)
same,Hypertriglyceridemia leading to dose interruption/reduction,"Example 1, 30 mg (n = 37)",1 n
same,"Hypertriglyceridemia leading to dose interruption/reduction, percent of cohort","Example 1, 30 mg (n = 37)",(2.7%)
same,Hypocalcemia leading to dose interruption/reduction,"Example 1, 30 mg (n = 37)",2 n
same,"Hypocalcemia leading to dose interruption/reduction, percent of cohort","Example 1, 30 mg (n = 37)",(5.4%)
same,Lacunar infarction leading to dose interruption/reduction,"Example 1, 30 mg (n = 37)",0 n (%)
same,Lipase increased leading to dose interruption/reduction,"Example 1, 30 mg (n = 37)",0 n (%)
same,Thrombocytopenia leading to dose interruption/reduction,"Example 1, 30 mg (n = 37)",12 n
same,"Thrombocytopenia leading to dose interruption/reduction, percent of cohort","Example 1, 30 mg (n = 37)",(32%)
same,ALT increased leading to dose interruption/reduction,"Example 1, 40 mg (n = 37)",1 n
same,"ALT increased leading to dose interruption/reduction, percent of cohort","Example 1, 40 mg (n = 37)",(2.7%)
same,AST increased leading to dose interruption/reduction,"Example 1, 40 mg (n = 37)",1 n
same,"AST increased leading to dose interruption/reduction, percent of cohort","Example 1, 40 mg (n = 37)",(2.7%)
same,Amylase increased leading to dose interruption/reduction,"Example 1, 40 mg (n = 37)",0 n (%)
same,Anemia leading to dose interruption/reduction,"Example 1, 40 mg (n = 37)",0 n (%)
same,Atrial fibrillation leading to dose interruption/reduction,"Example 1, 40 mg (n = 37)",0 n (%)
same,Cardiomyopathy leading to dose interruption/reduction,"Example 1, 40 mg (n = 37)",0 n (%)
same,GGT increased leading to dose interruption/reduction,"Example 1, 40 mg (n = 37)",1 n
same,"GGT increased leading to dose interruption/reduction, percent of cohort","Example 1, 40 mg (n = 37)",(2.7%)
same,Hyperkalemia leading to dose interruption/reduction,"Example 1, 40 mg (n = 37)",0 n (%)
same,Hypertriglyceridemia leading to dose interruption/reduction,"Example 1, 40 mg (n = 37)",0 n (%)
same,Hypocalcemia leading to dose interruption/reduction,"Example 1, 40 mg (n = 37)",0 n (%)
same,Lacunar infarction leading to dose interruption/reduction,"Example 1, 40 mg (n = 37)",0 n (%)
same,Lipase increased leading to dose interruption/reduction,"Example 1, 40 mg (n = 37)",1 n
